System: U-87MG cells
Assay: Immunoblotting of protein expression in peptide-treated cells
Assay type: cell-based, human
Details: 12 h
Experimental: U-87 MG cells were treated with the indicated concentrations of D-Δ(1-18)N-Ter-Antp peptide in serum-free DMEM for 6 h. Then cells were lysed in lysis buffer (100 mM Tris/HCl pH 8.0, 5% sodium dodecyl sulfate [SDS]), supplemented with a protease inhibitor cocktail (Calbiochem, San Diego, CA, USA). The lysates were vortexed and heated at 70 °C for 10 min. Finally, cell lysates were centrifuged (15,000× g, 10 min at 4 °C), and the protein concentration of the supernatant was determined according to the Lowry assay with a slight modification. Protein samples were stored at −80 °C until subsequent gel electrophoresis. Protein samples (20 μg) were resolved by SDS-polyacrylamide gel electrophoresis and immunoblotted using selected primary antibodies (sources and dilutions are listed in Table S1), followed by incubation with appropriate horseradish peroxidase (HRP)-conjugated secondary antibodies (Table S1). Proteins were detected using the EZ-ECL Enhanced Chemiluminescence Detection Kit (Biological Industries, Beit Haemek, Israel). Band intensities were analyzed with densitometry using FUSION-FX software (Vilber Lourmat, Collegien, France), and the values were normalized to β-actin.
Figure 3 The D-Δ(1-18)N-Ter-Antp peptide induced autophagy and cellular senescence and altered the expression of apoptosis-related proteins. (A,B) U-87MG cells were treated with the indicated concentrations of D-Δ(1-18)N-Ter-Antp peptide for 12 h and then were subjected to immunoblotting for caspase-9, AIF, Bcl-xL, Bcl-2, and Bax and the relative expression level was quantified (B). (C,D) U-87MG cells were treated with the indicated concentrations of D-Δ(1-18)N-Ter-Antp peptide for 12 h and then subjected to immunoblotting for the autophagy markers LC3-I and LC3-II (C) and LC3-II quantification (D). (E,F) U-87MG cells were treated with the indicated concentrations of D-Δ(1-18)N-Ter-Antp peptide for 12 h and then subjected to β-gal activity (blue). Mouse embryonic fibroblast cells at passage 10 (MEF-P10) served as a positive control of senescent cells. Quantification of β-gal staining intensity (F). Data are presented as the mean ± SD, n = 3, * p < 0.05; ** p < 0.01; *** p < 0.001 versus control group. NS, non-specific. The images were captured at 40× and two folds enlargement is shown.
Figure 4 The D-Δ(1-18)N-Ter-Antp induced the altered expression of metabolism and signaling-related proteins. (A,B) U-87MG cells were treated with the indicated concentrations of D-Δ(1-18)N-Ter-Antp peptide at the indicated concentration for 12 h and then subjected to immunoblot analyses of cell lysates for VDAC1, HK-I, ATPsyn5a, and citrate synthase (CS) (A). Quantification of the immunoblot (B). (C–E) Immunoblotting of the indicated proteins c-Jun, NF-κB-p65, p53, CDK2 and IkB-a (C) and their quantitative analysis (D,E). The results were from triplicates of different biological repeats (n = 3) and are presented as the means ± SEM. * p ≤ 0.05; ** p ≤ 0.01; *** p ≤ 0.001.

[1] = immunoblot normalized to β-actin, n = 3

## 19-FTKGYGFGL-26- RQIKIWFQNRRMKWKK [D-Δ(1-18)N-Ter-Antp]
Immunoblot for LC3-I and LC3-II
  Autophagy, appearance of LC3-II: induced
[1]
  Decrease of expression of IκBα: 2 fold
  Decrease of expression of cyclin-dependent kinase 2 (CDK-2): 2 fold
  Enhanced expression of c-Jun: 6 fold
  Enhanced expression of nuclear factor kappa B (NF-κB p65): 3.5 fold
  Enhanced expression of p53: 3 fold

— article PMC9599717, “The Multicellular Effects of VDAC1 N-Terminal-Derived Peptide” (Biomolecules, 2022)
